# Reference: paper PMC6095594, “Pre-clinical evaluation of quinoxaline-derived chalcones in tuberculosis” (PLoS ONE, 2018)
# pIC50: −log10 of the molar value. “And” between values parts separate entries of the source, which are not always exact repeats. Equal values may be shown once.
# What was measured:
# [1] = system: S. typhimurium TA97a; test: Salmonella/microsome mutagenicity test
# Method: (§1) Salmonella typhimurium strains TA98, TA97a, TA100, TA1535, and TA102 were provided by MOLTOX® (Molecular Toxicology Inc. USA). Mutagenicity was assayed according to the pre-incubation procedure following the recommendation described in Mortelmans and Zieger (2000). […] Briefly, 100 μL of test bacterial cultures (1–2 x 10^9 cells/mL) were incubated at 37 °C with different concentrations of N9 (10–400 μg/plate) in the presence or absence of S9 mix, for 20 min, without shaking. […] 2-aminoanthracene (2-AA, 5 μg/plate) was used as positive control for all strains in the presence of metabolic activation (with S9 mix). […] Plates were incubated in the dark at 37 °C for 48 h before counting the revertant colonies. Assays were repeated twice and the plating for each concentration was conducted in triplicate. Data were evaluated by one-way analysis of variance (ANOVA), followed by Dunnett's post-test, using GraphPad Prism 5.0 (GraphPad, San Diego, CA, USA).
# [2] = system: S. typhimurium TA102; test: Salmonella/microsome mutagenicity test
# Method: as §1
# [3] = system: S. typhimurium TA98; test: Salmonella/microsome mutagenicity test
# Method: as §1
# [4] = system: M. tuberculosis pNIP::control; test: microbe, parasite or virus in culture; format: cell-based; settings: Mycobacterium tuberculosis; pNIP::control (empty vector)
# [5] = system: mycolic acids synthesis in M. tuberculosis cells; format: cell-based; settings: N9 at 10 and 25 μg/mL, 18 hours
# [6] = system: M. tuberculosis H37Rv; test: Checkerboard assay, two-drug combination with REMA readout; format: cell-based, Mycobacterium tuberculosis; settings: for MIC Combined: checkerboard, three independent experiments
# [7] = biological target: CYP1A2 (Homo sapiens, UniProt P05177); test: biochemical
# [8] = biological target: CYP2C9 (Homo sapiens, UniProt P11712); settings: human liver microsomes
# [9] = biological target: CYP2D6 (Homo sapiens, UniProt P10635); settings: human liver microsomes, CYP2D6, N9 0.01–100 μmol L^-1
# [10] = system: S. typhimurium TA100; test: Salmonella/microsome mutagenicity test
# Method: Salmonella typhimurium strains TA98, TA97a, TA100, TA1535, and TA102 were provided by MOLTOX® (Molecular Toxicology Inc. USA). Mutagenicity was assayed according to the pre-incubation procedure following the recommendation described in Mortelmans and Zieger (2000). […] Briefly, 100 μL of test bacterial cultures (1–2 x 10^9 cells/mL) were incubated at 37 °C with different concentrations of N9 (10–400 μg/plate) in the presence or absence of S9 mix, for 20 min, without shaking. […] Plates were incubated in the dark at 37 °C for 48 h before counting the revertant colonies. Assays were repeated twice and the plating for each concentration was conducted in triplicate. Data were evaluated by one-way analysis of variance (ANOVA), followed by Dunnett's post-test, using GraphPad Prism 5.0 (GraphPad, San Diego, CA, USA).
# [11] = system: M. tuberculosis pNIP::KatG(WT); test: microbe, parasite or virus in culture; format: cell-based; settings: Mycobacterium tuberculosis
# CYP2D6, sequence (P10635 whole entry): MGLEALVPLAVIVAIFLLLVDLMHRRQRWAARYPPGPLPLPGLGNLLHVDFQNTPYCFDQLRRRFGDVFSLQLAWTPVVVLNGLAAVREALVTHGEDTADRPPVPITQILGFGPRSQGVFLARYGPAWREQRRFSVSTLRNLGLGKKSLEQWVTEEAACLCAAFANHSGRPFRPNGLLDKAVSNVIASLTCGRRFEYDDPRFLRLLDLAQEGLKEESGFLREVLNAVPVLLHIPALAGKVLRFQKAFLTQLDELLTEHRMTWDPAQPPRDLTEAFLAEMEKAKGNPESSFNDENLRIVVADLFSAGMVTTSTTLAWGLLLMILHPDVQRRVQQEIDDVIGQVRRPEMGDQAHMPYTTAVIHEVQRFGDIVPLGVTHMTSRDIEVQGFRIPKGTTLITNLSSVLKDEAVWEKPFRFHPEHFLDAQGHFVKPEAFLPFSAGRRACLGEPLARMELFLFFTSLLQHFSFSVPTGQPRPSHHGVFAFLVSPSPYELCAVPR
# CYP1A2, sequence (P05177 whole entry): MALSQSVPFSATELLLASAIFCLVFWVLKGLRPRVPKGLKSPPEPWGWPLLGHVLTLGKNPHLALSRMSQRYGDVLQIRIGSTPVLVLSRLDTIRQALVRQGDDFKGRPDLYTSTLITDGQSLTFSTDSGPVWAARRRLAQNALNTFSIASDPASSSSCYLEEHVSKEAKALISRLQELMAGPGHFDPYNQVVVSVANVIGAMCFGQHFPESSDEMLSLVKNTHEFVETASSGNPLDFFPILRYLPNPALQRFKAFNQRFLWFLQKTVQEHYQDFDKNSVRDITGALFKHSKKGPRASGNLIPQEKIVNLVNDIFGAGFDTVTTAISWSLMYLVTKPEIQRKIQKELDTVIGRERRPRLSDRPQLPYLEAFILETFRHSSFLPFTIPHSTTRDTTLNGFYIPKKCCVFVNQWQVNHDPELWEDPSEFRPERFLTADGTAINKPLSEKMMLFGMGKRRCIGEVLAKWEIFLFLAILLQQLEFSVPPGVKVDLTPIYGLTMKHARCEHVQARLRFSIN
# CYP2C9, sequence (P11712 whole entry): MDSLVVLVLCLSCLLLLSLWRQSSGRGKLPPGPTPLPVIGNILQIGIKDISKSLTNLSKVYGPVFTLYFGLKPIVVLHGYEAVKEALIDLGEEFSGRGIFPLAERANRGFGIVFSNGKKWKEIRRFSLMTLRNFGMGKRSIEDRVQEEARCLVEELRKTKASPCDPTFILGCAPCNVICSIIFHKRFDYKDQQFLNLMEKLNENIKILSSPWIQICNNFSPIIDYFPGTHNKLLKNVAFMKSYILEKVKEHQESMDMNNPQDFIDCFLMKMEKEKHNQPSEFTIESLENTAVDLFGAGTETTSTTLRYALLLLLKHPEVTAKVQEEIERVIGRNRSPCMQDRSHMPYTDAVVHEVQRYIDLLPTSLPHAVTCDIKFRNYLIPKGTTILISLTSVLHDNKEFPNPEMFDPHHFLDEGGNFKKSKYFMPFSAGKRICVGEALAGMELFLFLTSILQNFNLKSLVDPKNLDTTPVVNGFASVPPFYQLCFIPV
smiles,measurement,setting,value
COc1ccc(OC)c(C(=O)/C=C/c2ccc3nccnc3c2)c1 [N9],MI: mutagenic index,"[1]; +S9, 10 μg/plate",1.11
same,Number of revertants/plate,"[1]; +S9, 10 μg/plate",128.0±12.1 Rev/plate
same,MI: mutagenic index,"[1]; +S9, 50 μg/plate",0.92
same,Number of revertants/plate,"[1]; +S9, 50 μg/plate",106.0±14.2 Rev/plate
same,MI: mutagenic index,"[1]; +S9, 100 μg/plate",0.98
same,Number of revertants/plate,"[1]; +S9, 100 μg/plate",113.5±5.0 Rev/plate
same,MI: mutagenic index,"[1]; +S9, 200 μg/plate",0.71
same,Number of revertants/plate,"[1]; +S9, 200 μg/plate",82.0±1.0 Rev/plate
same,MI: mutagenic index,"[1]; +S9, 400 μg/plate",0.90
same,Number of revertants/plate,"[1]; +S9, 400 μg/plate",104.0±28.8 Rev/plate
same,MI: mutagenic index,"[1]; -S9, 10 μg/plate",1.14
same,Number of revertants/plate,"[1]; -S9, 10 μg/plate",145.7±20.3 Rev/plate
same,MI: mutagenic index,"[1]; -S9, 50 μg/plate",0.98
same,Number of revertants/plate,"[1]; -S9, 50 μg/plate",125.0±12.5 Rev/plate
same,MI: mutagenic index,"[1]; -S9, 100 μg/plate",0.93
same,Number of revertants/plate,"[1]; -S9, 100 μg/plate",118.0±8.2 Rev/plate
same,MI: mutagenic index,"[1]; -S9, 200 μg/plate",0.98
same,Number of revertants/plate,"[1]; -S9, 200 μg/plate",124.3±13.3 Rev/plate
same,MI: mutagenic index,"[1]; -S9, 400 μg/plate",1.05
same,Number of revertants/plate,"[1]; -S9, 400 μg/plate",134.0±3.6 Rev/plate
same,MI: mutagenic index,"[2]; TA102, +S9, 10 μg/plate",1.01
same,Number of revertants/plate,"[2]; TA102, +S9, 10 μg/plate",376.3±29.0 Rev/plate
same,MI: mutagenic index,"[2]; TA102, +S9, 50 μg/plate",0.96
same,Number of revertants/plate,"[2]; TA102, +S9, 50 μg/plate",358.0±49.1 Rev/plate
same,MI: mutagenic index,"[2]; TA102, +S9, 100 μg/plate",0.99
same,Number of revertants/plate,"[2]; TA102, +S9, 100 μg/plate",368.7±12.7 Rev/plate
same,MI: mutagenic index,"[2]; TA102, +S9, 200 μg/plate",1.02
same,Number of revertants/plate,"[2]; TA102, +S9, 200 μg/plate",382.0±58.2 Rev/plate
same,MI: mutagenic index,"[2]; TA102, +S9, 400 μg/plate",0.99
same,Number of revertants/plate,"[2]; TA102, +S9, 400 μg/plate",371.0±23.6 Rev/plate
same,MI: mutagenic index,"[2]; TA102, -S9, 10 μg/plate",0.75
same,Number of revertants/plate,"[2]; TA102, -S9, 10 μg/plate",254.3±47.1 Rev/plate
same,MI: mutagenic index,"[2]; TA102, -S9, 50 μg/plate",0.89
same,Number of revertants/plate,"[2]; TA102, -S9, 50 μg/plate",299.3±50.6 Rev/plate
same,MI: mutagenic index,"[2]; TA102, -S9, 100 μg/plate",1.01
same,Number of revertants/plate,"[2]; TA102, -S9, 100 μg/plate",341.3±16.8 Rev/plate
same,MI: mutagenic index,"[2]; TA102, -S9, 200 μg/plate",0.96
same,Number of revertants/plate,"[2]; TA102, -S9, 200 μg/plate",324.3±4.2 Rev/plate
same,MI: mutagenic index,"[2]; TA102, -S9, 400 μg/plate",0.95
same,Number of revertants/plate,"[2]; TA102, -S9, 400 μg/plate",321.0±27.4 Rev/plate
same,MI: mutagenic index,"[3]; TA98, +S9, 10 μg/plate",1.09
same,Number of revertants/plate,"[3]; TA98, +S9, 10 μg/plate",43.7±4.7 Rev/plate
same,MI: mutagenic index,"[3]; TA98, +S9, 50 μg/plate",0.80
same,Number of revertants/plate,"[3]; TA98, +S9, 50 μg/plate",32.0±7.8 Rev/plate
same,MI: mutagenic index,"[3]; TA98, +S9, 100 μg/plate",0.94
same,Number of revertants/plate,"[3]; TA98, +S9, 100 μg/plate",37.7±5.7 Rev/plate
same,MI: mutagenic index,"[3]; TA98, +S9, 200 μg/plate",1.05
same,Number of revertants/plate,"[3]; TA98, +S9, 200 μg/plate",42.0±5.6 Rev/plate
same,MI: mutagenic index,"[3]; TA98, +S9, 400 μg/plate",1.06
same,Number of revertants/plate,"[3]; TA98, +S9, 400 μg/plate",42.3±6.7 Rev/plate
same,MI: mutagenic index,"[3]; TA98, -S9, 10 μg/plate",0.83
same,Number of revertants/plate,"[3]; TA98, -S9, 10 μg/plate",28.3±7.6 Rev/plate
same,MI: mutagenic index,"[3]; TA98, -S9, 50 μg/plate",0.73
same,Number of revertants/plate,"[3]; TA98, -S9, 50 μg/plate",25.0±6.1 Rev/plate
same,MI: mutagenic index,"[3]; TA98, -S9, 100 μg/plate",0.81
same,Number of revertants/plate,"[3]; TA98, -S9, 100 μg/plate",27.7±4.0 Rev/plate
same,MI: mutagenic index,"[3]; TA98, -S9, 200 μg/plate",0.89
same,Number of revertants/plate,"[3]; TA98, -S9, 200 μg/plate",30.5±2.1 Rev/plate
same,MI: mutagenic index,"[3]; TA98, -S9, 400 μg/plate",1.24
same,Number of revertants/plate,"[3]; TA98, -S9, 400 μg/plate",42.5±15.8 Rev/plate
same,MIC,[4],3.13 µg/mL
same,Effect on synthesis of mycolic acids and non-hydroxylated fatty acids,[5],did not inhibit
same,FICI (fractional inhibitory concentration index),[6]; N9 combined with MFX,below 0.5
same,MIC Combined,[6]; combination N9 + EMB,0.78 µg/mL
same,MIC Combined,[6]; combination N9 + INH,0.78 µg/mL
same,MIC Combined,[6]; combination N9 + RIF,0.78 µg/mL and 1.56 µg/mL
same,pIC50,[7],5.70
same,Inhibitory potential,[8],weak inhibitory potential
same,percentage of remaining enzyme activity,[9],approximately 100%
same,MI: mutagenic index,"[10]; TA100, +S9, 10 μg/plate",0.94
same,Number of revertants/plate,"[10]; TA100, +S9, 10 μg/plate",108.7±15.2 Rev/plate
same,MI: mutagenic index,"[10]; TA100, +S9, 50 μg/plate",1.13
same,Number of revertants/plate,"[10]; TA100, +S9, 50 μg/plate",130.7±10.7 Rev/plate
same,MI: mutagenic index,"[10]; TA100, +S9, 100 μg/plate",0.97
same,Number of revertants/plate,"[10]; TA100, +S9, 100 μg/plate",112.7±15.5 Rev/plate
same,MI: mutagenic index,"[10]; TA100, +S9, 200 μg/plate",0.95
same,Number of revertants/plate,"[10]; TA100, +S9, 200 μg/plate",110.0±11.8 Rev/plate
same,MI: mutagenic index,"[10]; TA100, +S9, 400 μg/plate",0.97
same,Number of revertants/plate,"[10]; TA100, +S9, 400 μg/plate",112.0±13.9 Rev/plate
same,MI: mutagenic index,"[10]; TA100, -S9, 10 μg/plate",1.08
same,Number of revertants/plate,"[10]; TA100, -S9, 10 μg/plate",125.0±10.5 Rev/plate
same,MI: mutagenic index,"[10]; TA100, -S9, 50 μg/plate",0.88
same,Number of revertants/plate,"[10]; TA100, -S9, 50 μg/plate",101.0±12.5 Rev/plate
same,MI: mutagenic index,"[10]; TA100, -S9, 100 μg/plate",0.84
same,Number of revertants/plate,"[10]; TA100, -S9, 100 μg/plate",97.0±20.1 Rev/plate
same,MI: mutagenic index,"[10]; TA100, -S9, 200 μg/plate",0.95
same,Number of revertants/plate,"[10]; TA100, -S9, 200 μg/plate",109.7±7.8 Rev/plate
same,MI: mutagenic index,"[10]; TA100, -S9, 400 μg/plate",0.84
same,Number of revertants/plate,"[10]; TA100, -S9, 400 μg/plate",96.7±9.3 Rev/plate
same,MIC,[11],3.13 µg/mL
